Measured values published in ChEMBL document CHEMBL1909046, “DrugMatrix in vitro pharmacology data”.

How the values were obtained:
[1] = DRUGMATRIX: Sodium/nucleoside co-transporter radioligand binding (ligand: nitrobenzylthioinosine); assay type: cell membranes, Cavia porcellus, Dunkin-Hartley, Cerebral cortex, Membrane; conditions: Not Active = under 50% inhibition at 10 µM
[2] = biological target: 5-hydroxytryptamine receptor 2B (Homo sapiens, UniProt P41595); assay type: cell membranes, CHO-K1, Membrane; conditions: cho-k1; also: in other assays of this panel Not Active means under 50% inhibition at 10 µM
Sequence of 5-hydroxytryptamine receptor 2B (P41595 whole entry): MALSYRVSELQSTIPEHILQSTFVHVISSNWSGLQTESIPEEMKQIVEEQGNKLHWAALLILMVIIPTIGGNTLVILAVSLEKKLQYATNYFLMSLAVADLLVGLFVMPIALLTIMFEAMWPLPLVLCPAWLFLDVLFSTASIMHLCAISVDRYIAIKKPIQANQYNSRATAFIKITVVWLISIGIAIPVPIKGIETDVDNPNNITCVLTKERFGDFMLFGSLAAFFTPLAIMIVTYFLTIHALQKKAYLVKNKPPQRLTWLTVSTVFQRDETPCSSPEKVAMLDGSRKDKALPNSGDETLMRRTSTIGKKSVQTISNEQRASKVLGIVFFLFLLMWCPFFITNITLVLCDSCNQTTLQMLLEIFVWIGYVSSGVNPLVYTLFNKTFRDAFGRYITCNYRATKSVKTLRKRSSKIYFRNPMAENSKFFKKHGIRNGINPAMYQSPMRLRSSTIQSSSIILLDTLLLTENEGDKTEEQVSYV

[3] = biological target: T1, 5-hydroxytryptamine receptor 2C (Homo sapiens, UniProt P28335); assay: DRUGMATRIX: Serotonin (5-Hydroxytryptamine) 5-HT2C radioligand binding (ligand: [3H] Mesulergine); assay type: cell membranes, CHO-K1, Membrane; conditions: cho-k1; Not Active = under 50% inhibition at 10 µM
T1 sequence (P28335 whole entry): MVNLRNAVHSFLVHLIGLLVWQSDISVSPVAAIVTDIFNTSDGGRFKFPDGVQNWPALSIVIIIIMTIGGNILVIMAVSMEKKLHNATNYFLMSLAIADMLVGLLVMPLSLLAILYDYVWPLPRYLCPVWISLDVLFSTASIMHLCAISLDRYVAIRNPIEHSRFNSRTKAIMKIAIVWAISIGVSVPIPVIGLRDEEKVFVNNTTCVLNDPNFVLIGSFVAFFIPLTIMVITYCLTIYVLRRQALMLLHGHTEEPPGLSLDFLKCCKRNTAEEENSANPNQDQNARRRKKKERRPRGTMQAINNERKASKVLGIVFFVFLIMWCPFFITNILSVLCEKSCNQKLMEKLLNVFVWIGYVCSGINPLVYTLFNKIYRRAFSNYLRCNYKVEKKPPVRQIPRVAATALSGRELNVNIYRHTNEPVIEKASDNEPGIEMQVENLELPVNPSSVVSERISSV

[4] = DRUGMATRIX: Glutamate, AMPA radioligand binding (ligand: [3H] AMPA); assay type: cell membranes, Rattus norvegicus, Wistar, Cerebral cortex, Membrane; conditions: Not Active = under 50% inhibition at 10 µM
[5] = DRUGMATRIX: Imidazoline I2, Central radioligand binding (ligand: [3H] Idazoxan); assay type: cell membranes, Rattus norvegicus, Wistar, Cerebral cortex, Membrane; conditions: Not Active = under 50% inhibition at 10 µM
[6] = biological target: T2, Neuropeptide Y receptor type 2 (Homo sapiens, UniProt P49146); assay type: cell membranes, Membrane; conditions: kan-ts; also: in other assays of this panel Not Active means under 50% inhibition at 10 µM
T2 sequence (P49146 whole entry): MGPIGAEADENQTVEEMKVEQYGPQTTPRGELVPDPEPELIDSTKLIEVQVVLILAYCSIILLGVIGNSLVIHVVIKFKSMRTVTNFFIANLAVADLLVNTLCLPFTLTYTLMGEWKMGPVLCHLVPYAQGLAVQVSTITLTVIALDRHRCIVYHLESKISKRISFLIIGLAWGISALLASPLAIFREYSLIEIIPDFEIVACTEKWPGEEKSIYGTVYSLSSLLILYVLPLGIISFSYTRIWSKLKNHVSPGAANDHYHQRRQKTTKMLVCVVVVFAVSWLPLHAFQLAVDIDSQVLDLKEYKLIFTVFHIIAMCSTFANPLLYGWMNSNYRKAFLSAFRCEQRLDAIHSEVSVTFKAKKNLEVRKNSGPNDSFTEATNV

[7] = biological target: Kappa-type opioid receptor (Homo sapiens, UniProt P41145); assay: DRUGMATRIX: Opiate kappa (OP2, KOP) radioligand binding (ligand: [3H] Diprenorphine); assay type: cell membranes, HEK293, Membrane; conditions: hek293; Not Active = under 50% inhibition at 10 µM
Sequence of Kappa-type opioid receptor (P41145 whole entry): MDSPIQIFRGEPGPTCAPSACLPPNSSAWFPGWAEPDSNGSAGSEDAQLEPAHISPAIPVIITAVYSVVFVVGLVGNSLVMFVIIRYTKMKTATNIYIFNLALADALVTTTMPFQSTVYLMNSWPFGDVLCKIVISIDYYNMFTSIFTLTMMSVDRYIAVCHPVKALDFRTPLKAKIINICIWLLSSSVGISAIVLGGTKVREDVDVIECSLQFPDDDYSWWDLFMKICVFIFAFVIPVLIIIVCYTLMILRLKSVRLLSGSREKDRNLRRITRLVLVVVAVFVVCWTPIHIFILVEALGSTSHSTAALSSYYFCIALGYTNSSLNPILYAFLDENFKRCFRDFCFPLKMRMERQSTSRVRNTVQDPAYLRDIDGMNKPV

[8] = DRUGMATRIX: Platelet-Derived Growth Factor (PDGF) radioligand binding (ligand: [125I] PDGF); assay type: cell-based; conditions: nih3t3; Not Active = under 50% inhibition at 10 µM
[9] = biological target: T3, Interstitial collagenase (Homo sapiens, UniProt P03956); assay: biochemical; assay type: tissue-based, Rheumatoid synovial fibroblasts;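 also: MMP-1 enzyme inhibition assay using a peptide substrate; in other assays of this panel Not Active means under 50% inhibition at 10 µM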
T3 sequence (P03956 whole entry): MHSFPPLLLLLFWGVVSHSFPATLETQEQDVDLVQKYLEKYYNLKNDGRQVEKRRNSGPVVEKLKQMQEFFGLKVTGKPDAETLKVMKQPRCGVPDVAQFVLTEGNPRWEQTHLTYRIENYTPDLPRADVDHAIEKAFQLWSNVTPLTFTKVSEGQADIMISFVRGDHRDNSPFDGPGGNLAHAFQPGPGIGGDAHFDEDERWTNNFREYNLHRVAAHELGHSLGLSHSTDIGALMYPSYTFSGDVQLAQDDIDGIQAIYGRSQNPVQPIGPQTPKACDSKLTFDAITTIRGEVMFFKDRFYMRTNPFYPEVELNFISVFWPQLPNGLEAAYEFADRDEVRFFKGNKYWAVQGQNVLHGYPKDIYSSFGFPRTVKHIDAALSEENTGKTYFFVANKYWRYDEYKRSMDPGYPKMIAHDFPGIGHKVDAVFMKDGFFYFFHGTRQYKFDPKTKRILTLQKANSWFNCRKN

[10] = DRUGMATRIX: Purinergic P2X radioligand binding (ligand: [3H] alpha, beta-Methylene-ATP); assay type: cell membranes, Oryctolagus cuniculus, New Zealand albino, Urinary bladder, Membrane; conditions: Not Active = under 50% inhibition at 10 µM

O=C1CCC(N2C(=O)c3ccccc3C2=O)C(=O)N1 (stereo not given) [THALIDOMIDE]
Not Active: IC50 [1] | Ki [1] | IC50 [2] | IC50 [3] | IC50 [4] | Ki [4] | IC50 [5] | Ki [5] | IC50 [6] | IC50 [7] | IC50 [8] | Ki [8] | IC50 [9] | IC50 [10] | Ki [10]

Cc1cccc(Nc2ccncc2S(=O)(=O)NC(=O)NC(C)C)c1 [TORSEMIDE]
Not Active: IC50 [1] | Ki [1] | IC50 [2] | IC50 [3] | IC50 [4] | Ki [4] | IC50 [5] | Ki [5] | IC50 [6] | IC50 [7] | IC50 [8] | Ki [8] | IC50 [9] | IC50 [10] | Ki [10]

CC(C)C[C@H](NC(=O)[C@@H](O)[C@H](N)Cc1ccccc1)C(=O)O [UBENIMEX]
Not Active: IC50 [1] | Ki [1] | IC50 [2] | IC50 [3] | IC50 [4] | Ki [4] | IC50 [5] | Ki [5] | IC50 [6] | IC50 [7] | IC50 [8] | Ki [8] | IC50 [9] | IC50 [10] | Ki [10]

Cc1onc(-c2ccccc2)c1-c1ccc(S(N)(=O)=O)cc1 [VALDECOXIB]
Not Active: IC50 [1] | Ki [1] | IC50 [2] | IC50 [3] | IC50 [4] | Ki [4] | IC50 [5] | Ki [5] | IC50 [6] | IC50 [7] | IC50 [8] | Ki [8] | IC50 [9] | IC50 [10] | Ki [10]

CC[C@]1(O)C[C@@H]2CN(CCc3c([nH]c4ccccc34)[C@@](C(=O)OC)(c3cc4c(cc3OC)N(C)[C@H]3[C@@](O)(C(=O)OC)[C@H](OC(C)=O)[C@]5(CC)C=CCN6CC[C@]43[C@@H]65)C2)C1 [VINBLASTINE]
Not Active: IC50 [1] | Ki [1] | IC50 [2] | IC50 [3] | IC50 [4] | Ki [4] | IC50 [5] | Ki [5] | IC50 [6] | IC50 [7] | IC50 [8] | Ki [8] | IC50 [9] | IC50 [10] | Ki [10]

C[C@@H](N)[C@H]1CC[C@H](C(=O)Nc2ccncc2)CC1 [Y-27632]
Not Active: IC50 [1] | Ki [1] | IC50 [2] | IC50 [3] | IC50 [4] | Ki [4] | IC50 [5] | Ki [5] | IC50 [6] | IC50 [7] | IC50 [8] | Ki [8] | IC50 [9] | IC50 [10] | Ki [10]

[Cl-].[Cl-].[Zn+2] [ZINC CHLORIDE]
Not Active: IC50 [1] | Ki [1] | IC50 [2] | IC50 [3] | IC50 [4] | Ki [4] | IC50 [5] | Ki [5] | IC50 [6] | IC50 [7] | IC50 [8] | Ki [8] | IC50 [9] | IC50 [10] | Ki [10]
